Data from the NIST ThermoML archive (doi:10.1021/je5010214).

Conditions: Liquid, Vibrating tube method

CCCCO [butan-1-ol]
Conditions | mass density [kg/m3]
303.15 K, 21920 kPa | 817.555
303.15 K, 24992 kPa | 819.44
303.15 K, 31958 kPa | 823.711
303.15 K, 32862 kPa | 824.267
303.15 K, 33112 kPa | 824.372
303.15 K, 34081 kPa | 824.9
303.15 K, 34980 kPa | 825.355
303.15 K, 37951 kPa | 827.164
303.15 K, 39904 kPa | 828.27
303.15 K, 42014 kPa | 829.398
303.15 K, 44896 kPa | 831.035
303.15 K, 47951 kPa | 832.781
303.15 K, 50065 kPa | 833.864
303.15 K, 52073 kPa | 834.942
303.15 K, 55075 kPa | 836.525
303.15 K, 57989 kPa | 838.099
303.15 K, 59979 kPa | 839.13
303.15 K, 62052 kPa | 840.165
303.15 K, 64988 kPa | 841.599
303.15 K, 66030 kPa | 842.119
303.16 K, 100 kPa | 802.125
303.16 K, 2964.9 kPa | 804.3
303.16 K, 7045.6 kPa | 807.335
303.16 K, 8858.2 kPa | 808.638
303.16 K, 10014 kPa | 809.449
303.16 K, 18021 kPa | 814.973
303.16 K, 27933 kPa | 821.256
303.16 K, 29990 kPa | 822.537
308.15 K, 274.3 kPa | 798.317
308.15 K, 494.1 kPa | 798.504
308.15 K, 803.3 kPa | 798.75
308.15 K, 1039.5 kPa | 798.954
308.15 K, 1916.7 kPa | 799.642
308.15 K, 2980.7 kPa | 800.489
308.15 K, 4990.2 kPa | 802.048
308.15 K, 6964.9 kPa | 803.548
308.15 K, 8864.3 kPa | 804.962
308.15 K, 9863.1 kPa | 805.692
308.15 K, 12009 kPa | 807.267
308.15 K, 17850 kPa | 811.315
308.15 K, 19930 kPa | 812.759
308.15 K, 21988 kPa | 814.131
308.15 K, 25012 kPa | 816.144
308.15 K, 27955 kPa | 817.999
308.15 K, 29906 kPa | 819.191
308.15 K, 31929 kPa | 820.41
308.15 K, 32886 kPa | 820.911
308.15 K, 32941 kPa | 821.059
308.15 K, 34011 kPa | 821.636
308.15 K, 37971 kPa | 823.987
308.15 K, 40011 kPa | 825.154
308.15 K, 41998 kPa | 826.392
308.15 K, 45017 kPa | 828.081
308.15 K, 48033 kPa | 829.748
308.15 K, 50044 kPa | 830.856
308.15 K, 51977 kPa | 831.933
308.15 K, 54982 kPa | 833.542
308.15 K, 58009 kPa | 835.036
308.15 K, 60030 kPa | 836.098
308.15 K, 61985 kPa | 837.136
308.15 K, 64981 kPa | 838.691
308.16 K, 85.2 kPa | 798.155
308.16 K, 15069 kPa | 809.4
308.16 K, 34949 kPa | 822.224
308.16 K, 66088 kPa | 839.237
313.15 K, 103.1 kPa | 794.254
313.15 K, 316 kPa | 794.433
313.15 K, 569.6 kPa | 794.643
313.15 K, 1088.8 kPa | 795.074
313.15 K, 2109.7 kPa | 795.902
313.15 K, 3137 kPa | 796.707
313.15 K, 5111.8 kPa | 798.292
313.15 K, 6921.8 kPa | 799.704
313.15 K, 9210.7 kPa | 801.445
313.15 K, 10209 kPa | 802.164
313.15 K, 12020 kPa | 803.525
313.15 K, 15059 kPa | 805.716
313.15 K, 17921 kPa | 807.72
313.15 K, 19932 kPa | 809.082
313.15 K, 22058 kPa | 810.55
313.15 K, 24862 kPa | 812.41
313.15 K, 27869 kPa | 814.438
313.15 K, 29957 kPa | 815.731
313.15 K, 32107 kPa | 817.091
313.15 K, 32980 kPa | 817.674
313.15 K, 33002 kPa | 817.783
313.15 K, 33981 kPa | 818.214
313.15 K, 35045 kPa | 818.819
313.15 K, 38127 kPa | 820.76
313.15 K, 41978 kPa | 822.973
313.15 K, 44946 kPa | 824.676
313.15 K, 47880 kPa | 826.39
313.15 K, 52097 kPa | 828.677
313.15 K, 54924 kPa | 830.321
313.15 K, 58082 kPa | 831.994
313.15 K, 59932 kPa | 832.96
313.15 K, 62004 kPa | 834.048
313.15 K, 64954 kPa | 835.652
313.15 K, 66113 kPa | 836.222
313.16 K, 860.7 kPa | 794.888
313.16 K, 39997 kPa | 821.817
313.16 K, 50021 kPa | 827.556
318.15 K, 72.7 kPa | 790.456
318.15 K, 150.1 kPa | 790.516
318.15 K, 336.3 kPa | 790.675
318.15 K, 1105.7 kPa | 791.334
318.15 K, 1929.1 kPa | 792.026
318.15 K, 2933.2 kPa | 792.866
318.15 K, 8989 kPa | 797.678
318.15 K, 10075 kPa | 798.523
318.15 K, 11896 kPa | 799.896
318.15 K, 18102 kPa | 804.461
318.15 K, 19985 kPa | 805.78
318.15 K, 22094 kPa | 807.257
318.15 K, 29998 kPa | 812.541
318.15 K, 33016 kPa | 814.458
318.15 K, 37838 kPa | 817.415
318.15 K, 40093 kPa | 818.817
318.15 K, 44884 kPa | 821.648
318.15 K, 47944 kPa | 823.402
318.15 K, 54944 kPa | 827.433
318.15 K, 57972 kPa | 829.016
318.15 K, 59923 kPa | 830.12
318.15 K, 65022 kPa | 832.785
318.15 K, 66028 kPa | 833.327
318.16 K, 590.9 kPa | 790.894
318.16 K, 891 kPa | 791.16
318.16 K, 5020.8 kPa | 794.556
318.16 K, 6926.7 kPa | 796.098
318.16 K, 14800 kPa | 802.072
318.16 K, 24873 kPa | 809.191
318.16 K, 27909 kPa | 811.139
318.16 K, 31957 kPa | 813.824
318.16 K, 34110 kPa | 815.009
318.16 K, 35048 kPa | 815.63
318.16 K, 41996 kPa | 819.89
318.16 K, 49950 kPa | 824.565
318.16 K, 52037 kPa | 825.741
318.16 K, 61930 kPa | 831.241
323.15 K, 95 kPa | 786.145
323.15 K, 296.1 kPa | 786.326
323.15 K, 528.4 kPa | 786.535
323.15 K, 994.2 kPa | 786.944
323.15 K, 2006.9 kPa | 787.814
323.15 K, 2966.6 kPa | 788.632
323.15 K, 4996.2 kPa | 790.328
323.15 K, 7042.1 kPa | 792.001
323.15 K, 9029.9 kPa | 793.564
323.15 K, 10090 kPa | 794.392
323.15 K, 11914 kPa | 795.8
323.15 K, 15111 kPa | 798.229
323.15 K, 17981 kPa | 800.333
323.15 K, 20038 kPa | 801.815
323.15 K, 21995 kPa | 803.198
323.15 K, 24993 kPa | 805.264
323.15 K, 32079 kPa | 809.955
